As usually defined, the Kd is a measure of binding affinity in units of concentration.

Where two headings read alike, the source gives them in different places.

The subject of data set [1] is Ribosomal A-site RNA. In words: Saturation transfer difference (STD) NMR binding experiment. The following applies: for STD signals @ 0.4-0.6 mM drug: Ribosomal A-site RNA.
Data set [2] relates to Ribosomal A-site RNA. In words: NMR line broadening of ligand signals. Type of data set: binding.
Data set [3] deals with Tat-TAR interaction (TAR with hybrid CycT1-Tat protein). In words: Electrophoretic mobility shift assay (EMSA, gel shift). Type of data set: binding, HIV-1. The following applies: for Gel Shift Assay: HIV-1 TAR; for prevention of the binding between Tat and TAR (EMSA): concentrations between 0.1 and 1 μM, hybrid CycT1-Tat protein and TAR each at 0.1 μM; for binding to the TAR region: in vitro. An excerpt:
RNA Binding Assays In vitro (Electrophoretic Mobility Shift Assay; EMSA)
EMSA is an effective method for determining whether TAR forms a complex with Tat and human cyclin T1. n the presence of TAR, containing the 5′ bulge and central loop, and these proteins, a lower mobility complex was observed on polyacrylamide gels. The lack of higher order complex formation signifies that a compound can block this RNA-protein interaction. […] These phenothiazines are used clinically as antipsychotic, sedative and antiemetic agents.
(In EMSA bound probe runs differently from free probe, usually more slowly.)

Data set [4] has as its system HIV-1 TAR RNA. In words: Saturation transfer difference (STD) NMR binding experiment.
For data set [5], the system named is HIV-1 TAR RNA. The experiment in a line: NMR line broadening of ligand signals. Type of data set: binding.
Another data set concerns HeLa cells. The following applies: human, 3 days.
The subject of data set [6] is Tat transactivation via TAR. The experiment in a line: Chloramphenicol acetyl transferase (CAT) assay in HeLa cells, HIV-1 LTR and Tat. The following applies: concentrations between 5 and 20 μM, dose-dependent.
For data set [7], the system named is Polio virus loop B RNA. Type of data set: binding.
Data set [8] relates to DLS SL1 CA-loop RNA (dimer linkage site stem-loop 1). In words: Saturation transfer difference (STD) NMR binding experiment. The arrangement: species or system HIV-1.
For data set [9], the system named is CVB3 loop D RNA. Described as above. The arrangement: species or system coxsackievirus B3.
The subject of data set [10] is Polio virus loop B RNA. Type of data set: binding. This is another data set of the same source.
Data set [11] concerns DLS SL1 CA-loop RNA (dimer linkage site stem-loop 1). The experiment in a line: NMR line broadening of ligand signals. Type of data set: binding, HIV-1.
Data set [12] concerns CVB3 loop D RNA. In words: NMR line broadening of ligand signals. Type of data set: binding, coxsackievirus B3.
The subject of data set [13] is Ribosomal A-site RNA. In words: TOCSY/NOESY NMR chemical shift mapping. The data set is classed as binding.
In data set [14] the test system is HIV-1 TAR RNA. The experiment in a line: TOCSY/NOESY NMR, structure of the acetylpromazine-TAR complex. The data set is classed as binding. Here is the method:
Five different samples of the 31-nucleotide TAR were prepared: unlabeled, uniformly ^13C,^15N-labeled, type-specifically ^13C,^15N-labeled at G, A or C residues, respectively. All samples were prepared by in vitro transcription using T7 RNA polymerase and a synthetic DNA template and purified as described in Du, et al., Biochemistry 35, 4187 (1996). Acetylpromazine was purchased from Research Diagnostics Inc. Final sample conditions were 1-2 mM RNA in 10 mM sodium phosphate buffer (pH 6.5), 20 mM sodium chloride. Acetylpromazine was added in about two-fold excess over RNA.
The solution structure of the acetylpromazine-TAR complex was determined using a protocol very similar to that previously described by Schmitz, U., et al, (1999) Structure of the phylogenetically most conserved domain of SRP RNA, RNA 5, 1419-1429.
All NMR experiments were performed on Varian Inova 600 MHz spectrometers. Spectra were processed with NMRpipe and analyzed with SPARKY. Homonuclear 2D NOESY spectra in H2O were collected at 10° C. using the SSNOESY pulse sequence.
Due to the large number of intermolecular NOEs, 51, between acetylpromazine and TAR, binding of acetylpromazine to the 5′ bulge is very well defined.
The […] of acetylpromazine inserts between base pairs G26-C39 and A22-U40, preventing continuous stacking of the lower and upper stems as observed in structures induced by argininamide or Tat-peptide. However, another set of base-stacking interactions is created. U23 continues stacking on A22 in the fashion of an A-helix. This is evident by the NOEs from U23 H6 to A22 H2′ and H3′, and from U23 H1′ to A22 H2. Benzene ring II of acetylpromazine is stacked on U40. Stacking of U23 on A22 and benzene ring II on U40 arranges the U23 base and benzene ring II such that they look like an extra base pair continuing helical stacking on the A22-U40 base pair. This “pseudo base-pair” may contribute to the creation of a deeper minor groove (compared to the standard A-helix) to accommodate the aliphatic moiety of acetylpromazine. […]

Data set [15] deals with Polio virus loop B RNA. Type of data set: binding. The following applies: first part of cell TOCSY/NOESY.
Data set [16] relates to DLS SL1 CA-loop RNA (dimer linkage site stem-loop 1). In words: TOCSY/NOESY NMR chemical shift mapping. Type of data set: binding, HIV-1.
Data set [17] concerns the target A-site RNA. In words: STD NMR competition experiment with paromomycin. The data set is classed as binding. The following applies: calculated from IC50 of the STD competition with paromomycin by Cheng and Prusoff correction; read-out: KD for the interaction with A-site RNA.
For data set [18], the system named is RNA targets (ribosomal A-site, polio virus, DLS SL1, CVB3). Type of data set: binding. The following applies: specific tertiary RNA motifs, loops and bulges.
Data set [19] deals with A-site RNA. The following applies: value stated for the competitor; read-out: KD of the high affinity drug (competitor) for A-site RNA; cited from earlier work.

For the compound `CN(C)CCCN1c2ccccc2Sc2ccccc21` [(2)], the “STD signals @ 0.4-0.6 mM drug” value in the data set with Ribosomal A-site RNA [1] is “yes”. Moreover, in the data set with Ribosomal A-site RNA [2], the Line broadening entry was “yes”. Also, the “Gel Shift Assay” value in data set [3] is “positive”.
As for `CN(C)CCCN1c2ccccc2Sc2ccc(Cl)cc21` [chlorpromazine, 2-chloro-10-(dimethylaminopropyl)phenothiazine], in data set [3], the “prevention of the binding between Tat and TAR (EMSA)” value (“prevention” for short) is given as “prevent completely”; the “binding to the TAR region” value is “bind”.
For `OCCNCCCN1c2ccccc2Sc2ccc(Cl)cc21` [(7)], the “STD signals @ 0.4-0.6 mM drug” value in the data set on HIV-1 TAR RNA [4] is recorded as “yes”. Besides, the Line broadening entry in the data set with HIV-1 TAR RNA [5] is “yes”.
In the case of `CN1CCN(CCCN2c3ccccc3Sc3ccc(C(F)(F)F)cc32)CC1` [trifluoperazine], in the data set with Ribosomal A-site RNA [1] (method not specified), the “inhibitory effect on the RNA of the ribosomal A-site” value is “inhibitory effect”. In addition, in data set [3], the “prevention” value is “did not”; the “binding to the TAR region” value was “not found to have such binding activity”.
As for `CN1CCN(CCCN2c3ccccc3Sc3ccc(Cl)cc32)CC1` [prochlorperazine], in [3], the “prevention” value was “prevent completely”; the “binding to the TAR region” value is recorded as “bind”. Moreover, the “concentration at which significant cellular toxicity resulted” value in the data set with HeLa cells was more than 20 µM. Further, the “inhibition of Tat transactivation” value in [6] is given as “up to 6 fold”.
On to `Clc1ccc2c(c1)N(CCCNCc1ccccc1)c1ccccc1S2` [(10)], for which the “STD signals @ 0.4-0.6 mM drug” value in the data set on HIV-1 TAR RNA [4] is recorded as “yes”. Also, in the data set with HIV-1 TAR RNA [5], the Line broadening result is listed as “little”.
Take `CC(=O)c1ccc2c(c1)N(CCCN(C)C)c1ccccc1S2` [(1), 10-[3-(dimethylamino)-propyl)phenothiazin-2-yl methyl ketone]: the “STD signals @ 0.4-0.6 mM drug” value (in the data set with Ribosomal A-site RNA [1]; with HIV-1 TAR RNA [4]; in the data set on Polio virus loop B RNA [7]; in data set [8]; in the data set with CVB3 loop D RNA [9]) was “yes” throughout. Further, the Line broadening entry (in the data set on Ribosomal A-site RNA [2]; in the data set on HIV-1 TAR RNA [5]; in the data set on Polio virus loop B RNA [10]; in data set [11]; with CVB3 loop D RNA [12]) was “yes” throughout. The NOESY data result in the data set with Ribosomal A-site RNA [13] and in the data set with HIV-1 TAR RNA [14] (second part of cell TOCSY/NOESY) was “yes/yes” throughout. The TOCSY data result is on record as “yes/yes” in the data set on Ribosomal A-site RNA [13], “yes/yes” in the data set on HIV-1 TAR RNA [14] (first part of cell TOCSY/NOESY), “yes/no data” with Polio virus loop B RNA [15] and “yes/no data” in data set [16]. Further, in the data set on HIV-1 TAR RNA [14] (5′ bulge), the “binding site on TAR in solution (NMR-derived structural model)” value was “binds to the 5′ bulge of TAR”. For the same compound, the “Gel Shift Assay” value in data set [3] is listed as “positive”. Moreover, the “inhibition of the interaction of TAR and Tat” value in [3] (compound at 100 nM, TAR and Tat both at 100 nM) is on record as “completely inhibited”. Moreover, in data set [3], the “prevention” value is given as “prevent completely”. Also, the “binding to the TAR region” value in [3] is given as “bind”. On A-site RNA [17], the Kd is approximately 10 µM. Further, the “binding to RNA motifs by chemical shift mapping (TOCSY)” value in data set [18] was “binds to specific tertiary RNA motifs such as loops and bulges”.
Consider `NC[C@@H]1O[C@H](O[C@H]2[C@@H](O)[C@H](O[C@@H]3[C@@H](O)[C@H](N)C[C@H](N)[C@H]3O[C@H]3O[C@H](CO)[C@@H](O)[C@H](O)[C@H]3N)O[C@@H]2CO)[C@H](N)[C@@H](O)[C@@H]1O` [paromomycin], for which the Kd at A-site RNA [19] is 0.2 µM.
In the case of `Clc1ccc2c(c1)N(CCCN1CCCCC1)c1ccccc1S2` [(9)], the “STD signals @ 0.4-0.6 mM drug” value in the data set on HIV-1 TAR RNA [4] is recorded as “yes”. Moreover, the Line broadening result in the data set on HIV-1 TAR RNA [5] is listed as “little”.
As to `CN(C)CCCN1c2ccccc2Sc2ccccc21` [(5)], the “STD signals @ 0.4-0.6 mM drug” value in the data set on Ribosomal A-site RNA [1] is “yes”. In the data set with Ribosomal A-site RNA [2], the Line broadening entry is “yes”. In addition, in [3], the “Gel Shift Assay” value is on record as “negative”.
Take `CCCCNCCCN1c2ccccc2Sc2ccc(Cl)cc21` [(8)]: the “STD signals @ 0.4-0.6 mM drug” value with HIV-1 TAR RNA [4] is on record as “yes”. Also, the Line broadening entry in the data set with HIV-1 TAR RNA [5] is reported as “yes”.
For `CN(C)CCCN1c2ccccc2Sc2ccccc21` [(4)], the “STD signals @ 0.4-0.6 mM drug” value with Ribosomal A-site RNA [1] is reported as “yes”. In addition, the Line broadening entry with Ribosomal A-site RNA [2] is given as “yes”. Also, the “Gel Shift Assay” value in data set [3] is “positive”.
Regarding `CN(C)CCCN1c2ccccc2Sc2ccccc21` [(3)], the “STD signals @ 0.4-0.6 mM drug” value in the data set with Ribosomal A-site RNA [1] is on record as “no”. In addition, the Line broadening result with Ribosomal A-site RNA [2] is listed as “yes”. The “Gel Shift Assay” value in [3] is on record as “negative”.
With `Clc1ccc2c(c1)N(CCCn1ccnc1)c1ccccc1S2` [(11)], the “STD signals @ 0.4-0.6 mM drug” value in the data set with HIV-1 TAR RNA [4] was “yes”.
In the case of `CCSc1ccc2c(c1)N(CCCN1CCN(C)CC1)c1ccccc1S2` [thiethylperazine], in [3], the “prevention” value is reported as “did not”; the “binding to the TAR region” value is given as “not found to have such binding activity”.
`CN(C)CCCN1c2ccccc2Sc2ccccc21` [(6)]: the “STD signals @ 0.4-0.6 mM drug” value in the data set with Ribosomal A-site RNA [1] is given as “no”. Besides, the Line broadening entry with Ribosomal A-site RNA [2] is listed as “little”; with HIV-1 TAR RNA [5], “yes”. Also, in [3], the “Gel Shift Assay” value is “positive”.

These data come from patent publication US20030229082A1, “Inhibition of RNA function” (The Regents of the University of California, priority 2002, published 2003).
